In US12227520B2 (priority 2019, dated 2025):
Read-outs that look alike come from different tables or passages of the source.

Assays:
[1] = tested on: HIV-1 (IIIB); assay: Antiviral assay in MT-4 cells (HIV MT-4 antiviral assay); type: cell-based; settings: Human immunodeficiency virus 1, IIIB, MT4, 120 h, HIV-1 (IIIB) in MT-4 cells, 5 days incubation; read-out: EC50
Outline: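 MT-4 cells infected with HIV-1 IIIB (1:250 diluted stock) and exposed to 1:3 serially diluted compound in RPMI with 10% FBS. Viability read by CellTiter-Glo luminescence after 5 days at 37° C; mock-infected cells and 5 μM AZT as controls.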

[2] = Cytotoxicity assay in MT-4 cells; type: cell-based, human; settings: human, uninfected MT-4 cells, 5 days incubation; read-out: CC50
Outline: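 Infected MT-4 cells (HIV-1 IIIB, fresh 1:250 dilution of concentrated stock) or mock-infected cells exposed to compounds for 5 days at 37 °C. Viability by CellTiter-Glo luminescence; 5 μM AZT positive control, no-drug negative control. Uninfected cells used for cytotoxicity, with 10 μM puromycin as base-level cytotoxicity control.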

[3] = tested on: pLai RLuc reporter virus; assay: microbe, parasite or virus in culture; type: cell-based, HIV; settings: Human immunodeficiency virus 1, 72 h
Outline: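 MT-4 cells pre-infected 2 h at 37 °C with pLai RLuc virus, then exposed to 1:3 serial dilutions of compound in RPMI/10% FBS with or without 50% human serum for 72 h at 37 °C. Renilla luminescence read-out; serum shift = EC50(HS/CCM)/EC50(CCM).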

[4] = read-out: Antiviral Serum Shift RLuc 50% HS, HS/CCM (RPMI media, 10% FBS, 50% HS, 1% P/S), 72-h incubation
[5] = read-out: Antiviral Serum Shift RLuc CCM, CCM (RPMI media, 10% FBS, 1% P/S), 72-h incubation

Compound | EC50 [1] [nM] | CC50 at 5 days [2] [µM] | EC50 [3, 4] [nM] | EC50 [3, 5] [nM]
O=C(NCc1c(F)cc(F)cc1F)c1cn2c(c(O)c1=O)C(=O)N1Cc3ccccc3C[C@H]2C1 [Example 70, (6S)-1-hydroxy-2,14-dioxo-N-(2,4,6-trifluorobenzyl)-2,7,12,14-tetrahydro-6H-6,13-methanobenzo[f]pyrido[1,2-a][1,4]diazonine-3-carboxamide] | 1.41 | 13.3 | 1.32 | 0.322
O=C(NCc1ccc(F)cc1F)c1cn2c(c(O)c1=O)C(=O)N1Cc3cc(F)c(F)cc3C[C@H]2C1 [Example 89, (6S)—N-(2,4-difluorobenzyl)-9,10-difluoro-1-hydroxy-2,14-dioxo-2,7,12,14-tetrahydro-6H-6,13-methanobenzo[f]pyrido[1,2-a][1,4]diazonine-3-carboxamide] | 2.38 | > 47.9 | 4.39 | 0.669
O=C(NCc1c(F)cc(F)cc1F)c1cn2c(c(O)c1=O)C(=O)N1CCc3cc(F)c(F)cc3[C@@H]2C1 (single isomer, unassigned) [Example 110-2] | 30.5 | 6.33 | 53.7 | 4.81
O=C(NCc1c(F)cc(F)cc1F)c1cn2c(c(O)c1=O)C(=O)N1C[C@H]2CCCc2ccccc21 [Example 80-2, (6R)-1-hydroxy-2,15-dioxo-N-(2,4,6-trifluorobenzyl)-2,6,7,8,9,15-hexahydro-6,14-methanobenzo[e]pyrido[1,2-a][1,4]diazecine-3-carboxamide] | 5.35 | 13.4 | 7.54 | 0.618
O=C(NCc1c(F)cc(F)cc1F)c1cn2c(c(O)c1=O)C(=O)N1CC[C@@H](F)C[C@H]2C1 [Example 73-1, (5R,7S)-5-fluoro-12-hydroxy-1,11-dioxo-N-(2,4,6-trifluorobenzyl)-1,4,5,6,7,11-hexahydro-3H-2,7-methanopyrido[1,2-a][1,4]diazonine-10-carboxamide] | 5.2 | > 50 | 0.897 | 0.715
O=C(NCc1c(F)cc(F)cc1F)c1cn2c(c(O)c1=O)C(=O)N1CC[C@@H](F)C[C@@H]2C1 [Example 73-2, (5R, 7R)-5-fluoro-12-hydroxy-1,11-dioxo-N-(2,4,6-trifluorobenzyl)-1,4,5,6,7,11-hexahydro-3H-2,7-methanopyrido[1,2-a][1,4]diazonine-10-carboxamide] | 1.82 | 23.1 | 0.919 | 0.283
O=C(NCc1c(F)cc(F)cc1F)c1cn2c(c(O)c1=O)C(=O)N1CCCC(F)(F)[C@H]2C1 (single isomer, unassigned) [Example 10-2] | 1 | 16.1 | 5.04 | 0.27
O=C(NCc1c(F)cc(F)cc1F)c1cn2c(c(O)c1=O)C(=O)N1CCc3ccc(F)cc3[C@H]2C1 [Example 147, (13S)-11-fluoro-4-hydroxy-3,5-dioxo-N-(2,4,6-trifluorobenzyl)-3,5,8,13-tetrahydro-7H-6,13-methanobenzo[g]pyrido[1,2-a][1,4]diazonine-2-carboxamide] | 2.14 | 6.91 | 3.64 | 0.375
Cn1cc2c(n1)CC[C@H]1CN2C(=O)c2c(O)c(=O)c(C(=O)NCc3c(F)cc(F)cc3F)cn21 [Example 85-1, (11S)-6-hydroxy-2-methyl-5,7-dioxo-N-(2,4,6-trifluorobenzyl)-2,5,7,11,12,13-hexahydro-4,11-methanopyrazolo[4,3-e]pyrido[1,2-a][1,4]diazonine-8-carboxamide] | 5.64 | > 49.9 | 1.57 | 1.06
O=C(NCc1ccc(F)cc1F)c1cn2c(c(O)c1=O)C(=O)N1C[C@@H](F)CC[C@H]2C1 (single isomer, unassigned) [Example 53-2] | 6.2 | 28.4 | 2.27 | 1.58
O=C(NCc1c(F)cc(F)cc1F)c1cn2c(c(O)c1=O)C(=O)N1CCN(C(F)(F)F)CC2C1 (stereo not drawn) [Example 141, 12-hydroxy-1,11-dioxo-N-(2,4,6-trifluorobenzyl)-5-(trifluoromethyl)-1,4,5,6,7,11-hexahydro-3H-2,7-methanopyrido[1,2-a][1,4,7]triazonine-10-carboxamide] | > 100 | > 50 | 199 | 29.6
O=C(NCc1c(F)cc(F)cc1F)c1cn2c(c(O)c1=O)C(=O)N1C[C@H]2CCc2cc(Cl)ccc21 [Example 48-2, (12R)-2-chloro-7-hydroxy-6,8-dioxo-N-(2,4,6-trifluorobenzyl)-6,8,13,14-tetrahydro-12H-5,12-methanobenzo[e]pyrido[1,2-a][1,4]diazonine-9-carboxamide] | 2.38 | 17.6 | 1.52 | 0.358
C[C@H]1CC(F)C[C@H]2CN1C(=O)c1c(O)c(=O)c(C(=O)NCc3c(F)cc(F)cc3F)cn12 (stereo partly drawn) [Example 84, (3S,7S)-5-fluoro-12-hydroxy-3-methyl-1,11-dioxo-N-(2,4,6-trifluorobenzyl)-1,4,5,6,7,11-hexahydro-3H-2,7-methanopyrido[1,2-a][1,4]diazonine-10-carboxamide] | 2.01 | 37.2 | 1.36 | 0.427
O=C(NCc1c(F)cc(F)cc1F)c1cn2c(c(O)c1=O)C(=O)N1CCC=C[C@@H]2C1 [Example 109-1, (7R)-12-hydroxy-1,11-dioxo-N-(2,4,6-trifluorobenzyl)-1,4,7,11-tetrahydro-3H-2,7-methanopyrido[1,2-a][1,4]diazonine-10-carboxamide] | 1.81 | 11.3 | 50.8 | 0.527
CC[C@]1(OC)CCCN2C[C@H]1n1cc(C(=O)NCc3c(F)cc(F)cc3F)c(=O)c(O)c1C2=O [Example 100, (6S,7R)-6-ethyl-12-hydroxy-6-methoxy-1,11-dioxo-N-(2,4,6-trifluorobenzyl)-1,4,5,6,7,11-hexahydro-3H-2,7-methanopyrido[1,2-a][1,4]diazonine-10-carboxamide] | 1.58 | 9.44 | 1.77 | 0.631
O=C(NCc1ccc(F)c(Cl)c1F)c1cn2c(c(O)c1=O)C(=O)N1Cc3cc(F)c(F)cc3C[C@@H]2C1 [Example 139-1, (6R)—N-(3-chloro-2,4-difluorobenzyl)-9,10-difluoro-1-hydroxy-2,14-dioxo-2,7,12,14-tetrahydro-6H-6,13-methanobenzo[f]pyrido[1,2-a][1,4]diazonine-3-carboxamide] | 14.8 | > 50 | 84.3 | 3.93
O=C(NCc1ccc(F)c(Cl)c1F)c1cn2c(c(O)c1=O)C(=O)N1CC2CCc2cc(F)c(F)cc21 (stereo not drawn) [Example 69, N-(3-chloro-2,4-difluorobenzyl)-2,3-difluoro-7-hydroxy-6,8-dioxo-6,8,13,14-tetrahydro-12H-5,12-methanobenzo[e]pyrido[1,2-a][1,4]diazonine-9-carboxamide] | 1.95 | 36.7 | 1.06 | 0.199
O=C(NCc1ccc(F)c(Cl)c1F)c1cn2c(c(O)c1=O)C(=O)N1CCCC[C@H]2C1 [Example 51, (7S)—N-(3-chloro-2,4-difluorobenzyl)-12-hydroxy-1,11-dioxo-1,4,5,6,7,11-hexahydro-3H-2,7-methanopyrido[1,2-a][1,4]diazonine-10-carboxamide] | 1.17 | 4.39 | 2.14 | 0.215
O=C(NCc1ccc(F)c(Cl)c1F)c1cn2c(c(O)c1=O)C(=O)N1CC2CCc2cc(F)ccc21 (stereo not drawn) [Example 68, N-(3-chloro-2,4-difluorobenzyl)-2-fluoro-7-hydroxy-6,8-dioxo-6,8,13,14-tetrahydro-12H-5,12-methanobenzo[e]pyrido[1,2-a][1,4]diazonine-9-carboxamide] | 1.2 | 3.58 | 1.17 | 0.279
O=C(NCc1ccc(F)cc1F)c1cn2c(c(O)c1=O)C(=O)N1CC[C@H](F)C[C@@H]2C1 [Example 56-3, (5S, 7R)—N-(2,4-difluorobenzyl)-5-fluoro-12-hydroxy-1,11-dioxo-1,4,5,6,7,11-hexahydro-3H-2,7-methanopyrido[1,2-a][1,4]diazonine-10-carboxamide] | 5.24 | 16.1 | 13.3 | 0.312
C[C@H]1CCC[C@H]2CN1C(=O)c1c(O)c(=O)c(C(=O)NCc3c(F)cc(F)cc3F)cn12 [Example 98, (3S, 7S)-12-hydroxy-3-methyl-1,11-dioxo-N-(2,4,6-trifluorobenzyl)-1,4,5,6,7,11-hexahydro-3H-2,7-methanopyrido[1,2-a][1,4]diazonine-10-carboxamide] | 1.27 | 14.3 | 19.2 | 0.284
